Consider ten compounds from ChEMBL document CHEMBL3045857, “Monitoring of spirodiclofen susceptibility in field populations of European red mites, Panonychus ulmi (Koch) (Acari: Tetranychidae), and the cross-resistance pattern of a laboratory-selected strain” (2011).

Values after ≈ are worked out from the molar mass of the structure shown.

Type in all cases: functional
Assay [1] deals with Panonychus ulmi. As to the kind of experiment: Insecticidal activity against Panonychus ulmi HS in plum tree leaf assessed as larvae mortality compound treated by spray application measured after 7 to 8 days treatment.
For assay [2], the system named is Panonychus ulmi. As to the kind of experiment: Resistance ratio, LC50 for larvae Panonychus ulmi HS to LC50 for larvae Panonychus ulmi PSR TK.
The subject of assay [3] is Panonychus ulmi. The assay is described as follows: Resistance ratio, LC50 for egg Panonychus ulmi HS to LC50 for egg Panonychus ulmi PSR TK.
The test system of assay [4] is Panonychus ulmi. As to the kind of experiment: Insecticidal activity against Panonychus ulmi PSR-TK in plum tree leaf assessed as mortality at egg stage compound treated by spray application measured after 7 to 8 days treatment.
Assay [5] relates to Panonychus ulmi. As to the kind of experiment: Insecticidal activity against Panonychus ulmi HS in plum tree leaf assessed as egg mortality compound treated by spray application measured after 7 to 8 days treatment.
Assay [6] relates to Panonychus ulmi. The assay is described as follows: Insecticidal activity against Panonychus ulmi PSR-TK in plum tree leaf assessed as mortality at larvae stage compound treated by spray application measured after 7 to 8 days treatment.
The subject of assay [7] is Panonychus ulmi. As to the kind of experiment: Resistance ratio, LC50 for larvae Panonychus ulmi Ge14/09 to LC50 for larvae Panonychus ulmi HS.
Assay [8] relates to Panonychus ulmi. As to the kind of experiment: Resistance ratio, LC50 for larvae Panonychus ulmi Ge13/09 to LC50 for larvae Panonychus ulmi HS.
Assay [9] has as its system Panonychus ulmi. The assay is described as follows: Insecticidal activity against Panonychus ulmi Ge13/09 in plum tree leaf assessed as egg mortality compound treated by spray application measured after 7 to 8 days treatment.
Assay [10] concerns Panonychus ulmi. The assay is described as follows: Resistance ratio, LC50 for larvae Panonychus ulmi Ge16/09 to LC50 for larvae Panonychus ulmi HS.
Assay [11] deals with Panonychus ulmi. As to the kind of experiment: Resistance ratio, LC50 for egg Panonychus ulmi Ge14/09 to LC50 for egg Panonychus ulmi HS.
For assay [12], the system named is Panonychus ulmi. As to the kind of experiment: Resistance ratio, LC50 for egg Panonychus ulmi Ge15/09 to LC50 for egg Panonychus ulmi HS.
In assay [13] the test system is Panonychus ulmi. The assay is described as follows: Insecticidal activity against Panonychus ulmi Ge16/09 in plum tree leaf assessed as larvae mortality compound treated by spray application measured after 7 to 8 days treatment.
In assay [14] the test system is Panonychus ulmi. The assay is described as follows: Resistance ratio, LC50 for egg Panonychus ulmi Ge16/09 to LC50 for egg Panonychus ulmi HS.
Assay [15] concerns Panonychus ulmi. The assay is described as follows: Resistance ratio, LC50 for egg Panonychus ulmi Ge13/09 to LC50 for egg Panonychus ulmi HS.
In assay [16] the test system is Panonychus ulmi. As to the kind of experiment: Insecticidal activity against Panonychus ulmi Ge15/09 in plum tree leaf assessed as larvae mortality compound treated by spray application measured after 7 to 8 days treatment.
The test system of assay [17] is Panonychus ulmi. The assay is described as follows: Insecticidal activity against Panonychus ulmi Ge16/09 in plum tree leaf assessed as egg mortality compound treated by spray application measured after 7 to 8 days treatment.
The subject of assay [18] is Panonychus ulmi. The assay is described as follows: Insecticidal activity against Panonychus ulmi Ge14/09 in plum tree leaf assessed as larvae mortality compound treated by spray application measured after 7 to 8 days treatment.
The subject of assay [19] is Panonychus ulmi. The assay is described as follows: Insecticidal activity against Panonychus ulmi Ge15/09 in plum tree leaf assessed as egg mortality compound treated by spray application measured after 7 to 8 days treatment.
Assay [20] deals with Panonychus ulmi. The assay is described as follows: Insecticidal activity against Panonychus ulmi Ge14/09 in plum tree leaf assessed as egg mortality compound treated by spray application measured after 7 to 8 days treatment.
The subject of assay [21] is Panonychus ulmi. As to the kind of experiment: Insecticidal activity against Panonychus ulmi Ge13/09 in plum tree leaf assessed as larvae mortality compound treated by spray application measured after 7 to 8 days treatment.
Assay [22] relates to Panonychus ulmi. The assay is described as follows: Resistance ratio, LC50 for larvae Panonychus ulmi Ge15/09 to LC50 for larvae Panonychus ulmi HS.
Assay [23] has as its system Panonychus ulmi. The assay is described as follows: Resistance ratio, LC50 for adult Panonychus ulmi HS to LC50 for adult Panonychus ulmi GE 16/09.
Assay [24] deals with Panonychus ulmi. As to the kind of experiment: Insecticidal activity against Panonychus ulmi HS in plum tree leaf assessed as mortality at adult stage compound treated by spray application measured after 7 to 8 days treatment.
Assay [25] has as its system Panonychus ulmi. As to the kind of experiment: Insecticidal activity against Panonychus ulmi PSR-TK in plum tree leaf assessed as mortality at adult stage compound treated by spray application measured after 7 to 8 days treatment.
Assay [26] deals with Panonychus ulmi. The assay is described as follows: Resistance ratio, LC50 for adult Panonychus ulmi HS to LC50 for adult Panonychus ulmi PSR TK.

Turning to `Cc1cc(C)c(C2=C(OC(=O)CC(C)(C)C)C3(CCCC3)OC2=O)c(C)c1` [SPIROMESIFEN], the median lethal concentration (LC50) is 0.13 µg/mL (≈ 0.351 µM) with Panonychus ulmi [1], 0.36 µg/mL (≈ 0.972 µM) with Panonychus ulmi [4], 1.07 µg/mL (≈ 2.89 µM) in the assay on Panonychus ulmi [5] and 3.73 µg/mL (≈ 10.1 µM) in the assay on Panonychus ulmi [6]. For the same compound, the RatioLC50 with Panonychus ulmi [2] was found to be 30.4; in the assay with Panonychus ulmi [3], 4.

For the compound `CCOC(=O)OC1=C(c2cc(C)ccc2C)C(=O)N[C@]12CC[C@@H](OC)CC2` [SPIROTETRAMAT], the values for the LC50 in the assay with Panonychus ulmi [1] and in the assay with Panonychus ulmi [6] were 1.09 µg/mL (≈ 2.92 µM) and 538 µg/mL (≈ 1440 µM), respectively. For the same compound, the RatioLC50 with Panonychus ulmi [2] was 3.

Take `CCC(C)(C)C(=O)OC1=C(c2ccc(Cl)cc2Cl)C(=O)OC12CCCCC2` [SPIRODICLOFEN]: the RatioLC50 is recorded as 33 in the assay with Panonychus ulmi [7]; 12 in the assay on Panonychus ulmi [8]; >7000 in the assay with Panonychus ulmi [2]; 56 with Panonychus ulmi [3]; 59 with Panonychus ulmi [10]; 2.9 in the assay on Panonychus ulmi [11]. Also, the RatioLC50 was determined as 1.8 with Panonychus ulmi [12], 1.2 in the assay on Panonychus ulmi [14], 1.1 in the assay on Panonychus ulmi [15] and 27 in the assay with Panonychus ulmi [22]. Further, the LC50 with Panonychus ulmi [9] was 0.59 µg/mL (≈ 1.43 µM); in the assay with Panonychus ulmi [1], 1.39 µg/mL (≈ 3.38 µM); in the assay with Panonychus ulmi [4] it was > 10000 µg/mL; in the assay on Panonychus ulmi [13], 59.6 µg/mL (≈ 145 µM); with Panonychus ulmi [16] it was 27.6 µg/mL (≈ 67.1 µM); with Panonychus ulmi [17] it was 0.66 µg/mL (≈ 1.6 µM). The LC50 in the assay with Panonychus ulmi [18] was 33 µg/mL (≈ 80.2 µM); in the assay on Panonychus ulmi [19] it was 0.96 µg/mL (≈ 2.33 µM); with Panonychus ulmi [5] it was 0.52 µg/mL (≈ 1.26 µM); in the assay on Panonychus ulmi [20] it was 1.53 µg/mL (≈ 3.72 µM); in the assay on Panonychus ulmi [21], 12.1 µg/mL (≈ 29.4 µM); with Panonychus ulmi [6] it was > 10000 µg/mL.

For `C[C@@H]1[C@@H](c2ccc(Cl)cc2)SC(=O)N1C(=O)NC1CCCCC1` [HEXYTHIAZOX], the median lethal concentration (LC50) was 0.43 µg/mL (≈ 1.22 µM) in the assay with Panonychus ulmi [1], 4.32 µg/mL (≈ 12.2 µM) in the assay on Panonychus ulmi [4], 5.99 µg/mL (≈ 17 µM) in the assay with Panonychus ulmi [5] and 4.05 µg/mL (≈ 11.5 µM) in the assay on Panonychus ulmi [6]. The RatioLC50 in the assay with Panonychus ulmi [2] is listed as >20000; in the assay with Panonychus ulmi [3], >1600; in the assay with Panonychus ulmi [23], >20000.

`Cc1nn(C)c(/C(OC(=O)C(C)(C)C)=C(\C#N)c2ccc(C(C)(C)C)cc2)c1C` [CYENOPYRAFEN]: the LC50 in the assay with Panonychus ulmi [24] came to 0.3 µg/mL (≈ 0.762 µM); in the assay on Panonychus ulmi [25] it was 7.13 µg/mL (≈ 18.1 µM). Further, the RatioLC50 with Panonychus ulmi [26] was found to be 23.5.

In the case of `CCCCCCCCCCCCC1=C(OC(C)=O)C(=O)c2ccccc2C1=O` [ACEQUINOCYL], the figures for the LC50 in the assay on Panonychus ulmi [24] and in the assay on Panonychus ulmi [25] were 2.75 µg/mL (≈ 7.15 µM) and 1.3 µg/mL (≈ 3.38 µM), respectively. The RatioLC50 with Panonychus ulmi [26] turned out to be 3.

For `Clc1ccccc1-c1nnc(-c2ccccc2Cl)nn1` [CLOFENTEZINE], the LC50 is 5.53 µg/mL (≈ 18.2 µM) in the assay with Panonychus ulmi [1], > 10000 µg/mL in the assay with Panonychus ulmi [4], 61.3 µg/mL (≈ 202 µM) with Panonychus ulmi [5] and > 10000 µg/mL in the assay on Panonychus ulmi [6]. Also, the RatioLC50 with Panonychus ulmi [2] is given as >1800; in the assay on Panonychus ulmi [3] it was >160; in the assay with Panonychus ulmi [23], >3900.

Regarding `COc1ccc(-c2ccccc2)cc1NNC(=O)OC(C)C` [BIFENAZATE], the figures for the LC50 in the assay on Panonychus ulmi [24] and with Panonychus ulmi [25] were 1.42 µg/mL (≈ 4.73 µM) and 1.3 µg/mL (≈ 4.33 µM), respectively. Moreover, the RatioLC50 in the assay on Panonychus ulmi [26] stood at 1.

Take `CCOc1cc(C(C)(C)C)ccc1C1COC(c2c(F)cccc2F)=N1` (stereo not given) [ETOXAZOLE]: the results for the LC50 in the assay with Panonychus ulmi [1] and with Panonychus ulmi [6] were 0.15 µg/mL (≈ 0.417 µM) and > 10000 µg/mL, respectively. For the same compound, in the assay on Panonychus ulmi [2], the RatioLC50 amounted to 10.

Take `CCc1nn(C)c(C(=O)NCc2ccc(C(C)(C)C)cc2)c1Cl` [TEBUFENPYRAD]: the median lethal concentration (LC50) was 0.37 µg/mL (≈ 1.11 µM) with Panonychus ulmi [24] and 11.2 µg/mL (≈ 33.5 µM) in the assay on Panonychus ulmi [25]. For the same compound, the RatioLC50 in the assay on Panonychus ulmi [26] came out at 30.3.
